Patent US11130741B2 (Bioimics AB, priority 2016, dated 2021)
≈ marks a conversion by molar mass, not a printed value. Counter-ions that a name gives are not always drawn. Like-named read-outs stand apart in the source and are kept apart here.

How the values were obtained:
[1] = tested on: E. coli RNase P RNA, M1 RNA; experiment: Inhibition of bacterial RNase P activity, IC50 determination (cleavage of pATSerUG by M1 RNA); assay type: biochemical; settings: NI = No inhibition
[2] = tested on: Staphylococcus aureus subsp. aureus (ATCC29213); experiment: MIC, broth microdilution (CLSI), Staphylococcus aureus subsp. aureus ATCC29213; assay type: cell-based; settings: ATCC29213, Table 15, read-out: S. aureus ("wound") (MIC)
[3] = tested on: Escherichia coli (ATCC25922); experiment: MIC, broth microdilution (CLSI), Escherichia coli ATCC25922
[4] = ATCC25922, read-out: E. coli MIC, Table 15, NI = No inhibition
[5] = ATCC25922, read-out: E. coli MIC

SMILES | IC50 [1] | MIC [2] | MIC [3, 4] | MIC [3, 5]
CCOC(=O)c1ccc2c(c1)Sc1cc(-c3cc4ccccc4[nH]3)ccc1N2CCCN [compound 258, ethyl 10-(3-aminopropyl)-7-(1H-indol-2-yl)-10H-phenothiazine-3-carboxylate] | 24 µM | 2 µg/mL (≈ 4.51 µM) | 128 µg/mL (≈ 289 µM) | 
NCCCN1c2ccc(N3CCN(CCN)CC3)cc2Sc2cc(C(F)(F)F)ccc21 [compound 266, 3-(3-(4-(2-aminoethyl)piperazin-1-yl)-7-(trifluoromethyl)-10H-phenothiazin-10-yl)propan-1-amine hydrochloride] | 31 µM | 16 µg/mL |  | 64 µg/mL
NCCN1CCC(Nc2cc(C(F)(F)F)cc3c2Nc2ncccc2S3)CC1 [compound 268, N-(1-(2-aminoethyl)piperidin-4-yl)-7-(trifluoromethyl)-10H-benzo[b] pyrido[2,3-e] [1,4]thiazin-9-amine] | 31 µM | 8 µg/mL (≈ 19.5 µM) | 4 µg/mL (≈ 9.77 µM) | 
N#Cc1ccc2c(c1)Sc1cc(N3CCN(CCN)CC3)ccc1N2CCCN [compound 292, 7-(4-(2-aminoethyl)piperazin-1-yl)-10-(3-aminopropyl)-10H-phenothiazine-3-carbonitrile trifluoro acetic acid] | 140 µM | 128 µg/mL (≈ 313 µM) |  | > 128 µg/mL
Cl.Cl.NCCN1CCC(Nc2cc(C(F)(F)F)cc3c2Nc2ccc(C(=O)N4CCCC4)cc2S3)CC1 [compound 293, (9-((1-(2-aminoethyl)piperidin-4-yl)amino)-7-(trifluoromethyl)-10H-phenothiazin-3-yl)(pyrrolidin-1-yl)methanone hydrochloride] | 62 µM | 8 µg/mL | 16 µg/mL | 
Cl.FC(F)(F)c1cc(NC2CCN(CCN3CCNCC3)CC2)c2c(c1)Sc1cc(N3CCCC3)ccc1N2 [compound 330, N-(1-(2-(piperazin-1-yl)ethyl)piperidin-4-yl)-7-(pyrrolidin-1-yl)-3-(trifluoromethyl)-10H-phenothiazin-1-amine hydrochloride] |  | 128 µg/mL |  | > 128 µg/mL
Cl.NCCCNc1cc(C(F)(F)F)cc2c1Nc1ccc(Br)cc1S2 [compound 333, N1-(7-bromo-3-(trifluoromethyl)-10H-phenothiazin-1-yl)propane-1,3-diamine hydrochloride] |  | 8 µg/mL | 16 µg/mL | 
CN(C)c1ccc2c(c1)Sc1cc(C(F)(F)F)cc(NC3CCN(CCN)CC3)c1N2.Cl [compound 334] |  | 4 µg/mL | 16 µg/mL | 
Cl.Cl.NCCN(CCN)CCN1CCC(Nc2cc(C(F)(F)F)cc3c2Nc2ccc(N4CCCC4)cc2S3)CC1 [compound 335, N1-(2-aminoethyl)-N1-(2-(4-((7-(pyrrolidin-1-yl)-3-(trifluoromethyl)-10H-phenothiazin-1-yl)amino)piperidin-1-yl)ethyl)ethane-1,2-diamine hydrochloride] |  | 4 µg/mL | 64 µg/mL | 
Cl.NCCN1CCC(Nc2cc(C(F)(F)F)cc3c2Nc2ccc(N4CCC(C(N)=O)C4)cc2S3)CC1 (centres unmarked) [compound 338, 1-(9-((1-(2-aminoethyl)piperidin-4-yl)amino)-7-(trifluoromethyl)-10H-phenothiazin-3-yl)pyrrolidine-3-carboxamide hydrochloride] |  | 4 µg/mL | 64 µg/mL | 
CCN(C)c1ccc2c(c1)Sc1cc(C(F)(F)F)cc(NC3CCN(CCN)CC3)c1N2.Cl.Cl [compound 339, N1-(1-(2-aminoethyl)piperidin-4-yl)-N7-ethyl-N7-methyl-3-(trifluoromethyl)-10H-phenothiazine-1,7-diamine hydrochloride] |  | 4 µg/mL | 8 µg/mL | 
Cl.NCCN1CCC(Nc2cc(C(F)(F)F)cc3c2Nc2ccc(N4CCC5CCCC54)cc2S3)CC1 (centres unmarked) [compound 340, N-(1-(2-aminoethyl)piperidin-4-yl)-7-(hexahydro-cyclopenta[b]pyrrol-1(2H)-yl)-3-(trifluoromethyl)-10H-phenothiazin-1-amine hydrochloride] |  | 4 µg/mL | 16 µg/mL | 
CC1CC(C)N(c2ccc3c(c2)Sc2cc(C(F)(F)F)cc(NC4CCN(CCN)CC4)c2N3)C1.Cl.Cl (centres unmarked) [compound 341, N-(1-(2-aminoethyl)piperidin-4-yl)-7-(2,4-dimethyl-pyrrolidin-1-yl)-3-(trifluoromethyl)-10H-phenothiazin-1-amine hydrochloride] |  | 1 µg/mL | 8 µg/mL | 
Cl.NC1CCCC(CNc2cc(C(F)(F)F)cc3c2Nc2ccc(Br)cc2S3)C1 (centres unmarked) [compound 343, N-((3-aminocyclohexyl)methyl)-7-bromo-3-(trifluoromethyl)-10H-phenothiazin-1-amine hydrochloride] |  | 16 µg/mL | 64 µg/mL | 
Cl.NCCOCCCNc1cc(C(F)(F)F)cc2c1Nc1ccc(Br)cc1S2 [compound 344, N-(3-(2-aminoethoxy)propyl)-7-bromo-3-(trifluoromethyl)-10H-phenothiazin-1-amine hydrochloride] |  | 8 µg/mL | 16 µg/mL | 
Cl.NCCNCCCNc1cc(C(F)(F)F)cc2c1Nc1ccc(N3CCCC3)cc1S2 [compound 345, N1-(2-aminoethyl)-N3-(7-(pyrrolidin-1-yl)-3-(trifluoromethyl)-10H-phenothiazin-1-yl)propane-1,3-diamine hydrochloride] |  | 4 µg/mL | 32 µg/mL | 
CC1CC(C)CN(c2ccc3c(c2)Sc2cc(C(F)(F)F)cc(NCCCNCCN)c2N3)C1.Cl (centres unmarked) [compound 346, N1-(2-aminoethyl)-N3-(7-(3,5-dimethylpiperidin-1-yl)-3-(trifluoromethyl)-10H-phenothiazin-1-yl) propane-1,3-diamine hydrochloride] |  | 4 µg/mL | 16 µg/mL | 
Cl.NCCNCCCNc1cc(C(F)(F)F)cc2c1Nc1ccc(N3CC4(CCC4)C3)cc1S2 [compound 347, N1-(7-(2-azaspiro[3.3]heptan-2-yl)-3-(trifluoromethyl)-10H-phenothiazin-1-yl)-N3-(2-aminoethyl) propane-1,3-diamine hydrochloride] |  | 4 µg/mL | 8 µg/mL | 
CCN(C)c1ccc2c(c1)Sc1cc(C(F)(F)F)cc(NCCCNCCN)c1N2.Cl.Cl [compound 348, N1-(3-((2-aminoethyl)amino)propyl)-N7-ethyl-N7-methyl-3-(trifluoromethyl)-10H-phenothiazine-1,7-diamine hydrochloride] |  | 4 µg/mL | 32 µg/mL | 
CC1CC(C)N(c2ccc3c(c2)Sc2cc(C(F)(F)F)cc(NCCCNCCN)c2N3)C1.Cl (centres unmarked) [compound 349, N1-(2-aminoethyl)-N3-(7-(2,4-dimethyl-pyrrolidin-1-yl)-3-(trifluoromethyl)-10H-phenothiazin-1-yl)propane-1,3-diamine hydrochloride] |  | 4 µg/mL | 16 µg/mL | 
Cl.NCCNCCCNc1cc(C(F)(F)F)cc2c1Nc1ccc(N3CC4CCC3C4)cc1S2 (centres unmarked) [compound 350, N1-(7-(2-azabicyclo[2.2.1]heptan-2-yl)-3-(trifluoromethyl)-10H-phenothiazin-1-yl)-N3-(2-aminoethyl) propane-1,3-diamine hydrochloride] |  | 4 µg/mL | 8 µg/mL | 
Cl.NCCNCCCNc1cc(C(F)(F)F)cc2c1Nc1ccc(N3CCC4CCCC43)cc1S2 (centres unmarked) [compound 351, N1-(2-aminoethyl)-N3-(7-(hexahydro-cyclopenta[b]pyrrol-1(2H)-yl)-3-(trifluoromethyl)-10H-phenothiazin-1-yl)propane-1,3-diamine hydrochloride] |  | 4 µg/mL | 16 µg/mL | 
Cl.NCCN1CCC(Nc2cc(C(F)(F)F)cc3c2Nc2cc(Br)ccc2S3)CC1 [compound 352, N-(1-(2-aminoethyl)piperidin-4-yl)-8-bromo-3-(trifluoromethyl)-10H-phenothiazin-1-amine hydrochloride] |  | 4 µg/mL | 8 µg/mL | 
NCCNCCCNc1cc(C(F)(F)F)cc2c1Nc1ccc(C3CCCC3)cc1S2 [compound 353, N1-(2-aminoethyl)-N3-(7-cyclopentyl-3-(trifluoromethyl)-10H-phenothiazin-1-yl) propane-1,3-diamine hydrochloride] |  | 2 µg/mL |  | 8 µg/mL
Cl.Cl.NCCN1CCC(Nc2cc(C(F)(F)F)cc3c2Nc2ccc(C4CCCC4)cc2S3)CC1 [compound 354, N-(1-(2-aminoethyl)piperidin-4-yl)-7-cyclopentyl-3-(trifluoromethyl)-10H-phenothiazin-1-amine hydrochloride] |  | 1 µg/mL | 8 µg/mL | 
Cl.NCCNCCCNc1cc(C(F)(F)F)cc2c1Nc1cc(Br)ccc1S2 [compound 355, N1-(2-aminoethyl)-N3-(8-bromo-3-(trifluoromethyl)-10H-phenothiazin-1-yl)propane-1,3-diamine hydrochloride] |  | 4 µg/mL | 8 µg/mL | 
Cl.NCCN1CCC(Nc2cc(C(F)(F)F)cc3c2Nc2cc(N4CCCC4)ccc2S3)CC1 [compound 356, N-(1-(2-aminoethyl)piperidin-4-yl)-8-(pyrrolidin-1-yl)-3-(trifluoromethyl)-10H-phenothiazin-1-amine hydrochloride] |  | 16 µg/mL | 32 µg/mL | 
CC1CC(C)CN(c2ccc3c(c2)Nc2c(NC4CCN(CCN)CC4)cc(C(F)(F)F)cc2S3)C1.Cl (centres unmarked) [compound 357, N-(1-(2-aminoethyl)piperidin-4-yl)-8-(3,5-dimethyl-piperidin-1-yl)-3-(trifluoromethyl)-10H-phenothiazin-1-amine hydrochloride] |  | 16 µg/mL | 64 µg/mL | 
Cl.NCCNCCCNc1cc(C(F)(F)F)cc2c1Nc1ccc(C3=CCCC3)cc1S2 [compound 358, N1-(2-aminoethyl)-N3-(7-(cyclopent-1-en-1-yl)-3-(trifluoromethyl)-10H-phenothiazin-1-yl) propane-1,3-diaminehydrochloride] |  | 16 µg/mL | 16 µg/mL | 
Cl.NCCN1CCC(Nc2cc(C(F)(F)F)cc3c2Nc2ccc(C4=CCCC4)cc2S3)CC1 [compound 359, N-(1-(2-aminoethyl)piperidin-4-yl)-7-(cyclopent-1-en-1-yl)-3-(trifluoromethyl)-10H-phenothiazin-1-amine hydrochloride] |  | 16 µg/mL | 64 µg/mL | 
